According to patent publication US11384067B2, “Pyrazole n-linked carbamoyl cyclohexyl acids as LPA antagonists” (BRISTOL-MYERS SQUIBB COMPANY, priority 2017, dated 2022):

Columns and labels:
IPF patients = details: 26-week clinical trial; cited from earlier work
human LPA1 = biological target: T1, human LPA1 (Homo sapiens, UniProt Q92633); assay: LPA1 functional antagonist assay (LPA-induced calcium flux); format: cell-based; details: CHO cells overexpressing human LPA1, 10 nM LPA, read-out: hLPA1 IC50
T1 construct: expressed in transfected cells; host or cells: Chinese hamster ovary (CHO) cells
T1 sequence (Q92633 whole entry): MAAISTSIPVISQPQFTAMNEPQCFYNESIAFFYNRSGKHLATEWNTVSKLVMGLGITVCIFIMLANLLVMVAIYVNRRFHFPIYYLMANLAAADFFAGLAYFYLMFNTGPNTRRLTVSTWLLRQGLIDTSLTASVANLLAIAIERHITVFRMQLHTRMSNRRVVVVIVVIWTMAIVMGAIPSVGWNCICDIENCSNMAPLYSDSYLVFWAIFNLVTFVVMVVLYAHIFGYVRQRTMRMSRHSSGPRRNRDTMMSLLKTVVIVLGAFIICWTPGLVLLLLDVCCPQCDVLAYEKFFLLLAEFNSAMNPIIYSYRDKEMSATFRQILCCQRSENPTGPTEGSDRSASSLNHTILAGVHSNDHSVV
Method: The effectiveness of compounds of the present invention as LPA1 inhibitors can be determined in an LPA1 functional antagonist assay as follows:
The cells were then equilibrated to room temperature for 30 minutes before the assay. […] IC50 values were determined by fitting data to a 4-parameter logistic equation (GraphPad Prism, San Diego Calif.).

nerve-injured mice = details: pretreatment; cited from earlier work
[1] = test system: pancreatic cancer cell lines; details: cited from earlier work
[2] = test system: human foetal lung fibroblasts; details: cited from earlier work
[3] = test system: mouse epithelial renal cell line, MCT; details: co-treatment with LPA, MCT cells; cited from earlier work
UUO mice = details: compared with LPA1 (-/-) mice; cited from earlier work

| IC50 (human LPA1) | Structure (SMILES) | other results |
| --- | --- | --- |
|  | Cc1noc(-c2ccc(-c3ccc(C4(C(=O)O)CC4)cc3)cc2)c1NC(=O)O[C@H](C)c1ccccc1 [BMS-986020] | rate of FVC (forced vital capacity) decline (IPF patients): significantly reduce |
| 13 nM | Cc1nc(-c2cnn(C)c2CNC(=O)OCc2ccccc2)ccc1O[C@H]1CCC[C@H](C(=O)O)C1 [Example 33, (1S,3S)-3-((6-(5-((((benzyloxy)carbonyl)amino)methyl)-1-methyl-1H-pyrazol-4-yl)-2-methylpyridin-3-yl)oxy)cyclohexane-1-carboxylic acid] |  |
| 10 nM | Cc1nc(-c2cnn(C)c2CNC(=O)OCC2CCC2)ccc1O[C@H]1CCC[C@H](C(=O)O)C1 [Example 35, (1S,3S)-3-((6-(5-((((cyclobutyl-methoxy)carbonyl)amino)methyl)-1-methyl-1H-pyrazol-4-yl)-2-methyl-pyridin-3-yl)oxy)cyclohexane-carboxylic acid] |  |
| 16 nM | Cc1nc(-c2cnn(C)c2CNC(=O)OCc2ccccc2)ncc1O[C@H]1CCC[C@H](C(=O)O)C1 [Example 37, (1S,3S)-3-((2-(5-((((benzyloxy)carbonyl)amino)methyl)-1-methyl-1H-pyrazol-4-yl)-4-methylpyrimidin-5-yl)oxy)cyclohexane-1-carboxylic Acid] |  |
| 105 nM | Cc1nc(-c2cnn(C)c2NC(=O)O[C@H](C)c2ccccc2)ncc1O[C@H]1CCC[C@H](C(=O)O)C1 [Example 40, (1S,3S)-3-((4-methyl-2-(1-methyl-5-((((R)-1-phenylethoxy)carbonyl)amino)-1H-pyrazol-4-yl)pyrimidin-5-yl)oxy)cyclohexane-1-carboxylic acid] |  |
| 80 nM | Cc1nc(-c2cnn(C)c2NC(=O)O[C@H](C)C2CC2)ncc1O[C@H]1CCC[C@H](C(=O)O)C1 [Example 41, (1S,3S)-3-((2-(5-((((R)-1-cyclopropyl-ethoxy)carbonyl)amino)-1-methyl-1H-pyrazol-4-yl)-4-methylpyrimidin-5-yl)oxy)cyclohexane-1-carboxylic acid] |  |
| 564 nM | Cc1nc(-c2cnn(C)c2NC(=O)OCC(C)C)ncc1O[C@H]1CCC[C@H](C(=O)O)C1 [Example 43] |  |
| 995 nM | Cc1nc(-c2cnn(C)c2NC(=O)OCC2CC2)ncc1O[C@H]1CCC[C@H](C(=O)O)C1 [Example 44, (1S,3S)-3-((2-(5-(((cyclopropyl-methoxy)carbonyl)amino)-1-methyl-1H-pyrazol-4-yl)-4-methylpyrimidin-5-yl)oxy)cyclohexane-1-carboxylic acid] |  |
|  | C[C@@H](N)[C@H]1CC[C@H](C(=O)Nc2ccncc2)CC1 [Example Y-27632] | allodynia and hyperalgesia (nerve-injured mice): completely abolished |
|  | Cc1noc(-c2ccc(CSCCC(=O)O)cc2)c1NC(=O)OC(C)c1ccccc1Cl (centres unmarked) [Ki16425] | in vitro migration in response to LPA and ascites from pancreatic cancer patients [1]: effectively blocked; LPA-induced and ascites-induced invasion activity ([1]; highly peritoneal metastatic pancreatic cancer cell line): blocked; chemotaxis of human foetal lung fibroblasts induced by BAL from IPF patients [2]: blocked; fibroblast chemotactic activity in bronchoalveolar lavage samples of IPF subjects [2]: inhibited; LPA induction of CTGF expression [3]: almost completely suppressed; development of renal fibrosis in UUO mice (UUO mice): closely resembled the profile of LPA1 (−/−) mice |

| Structure (SMILES) | IC50 (human LPA1) | other results |
| --- | --- | --- |
| CC[C@H](C)COC(=O)NCc1c(-c2ccc(O[C@H]3CCC[C@H](C(=O)O)C3)c(C)n2)cnn1C [Example 34, (1S,3S)-3-((2-methyl-6-(1-methyl-5-(((((S)-2-methylbutoxy)carbonyl)amino)methyl)-1H-pyrazol-4-yl)pyridin-3-yl)oxy)cyclohexane-1-carboxylic acid] | 20 nM |  |
| CC[C@H](C)COC(=O)NCc1c(-c2ncc(O[C@H]3CCC[C@H](C(=O)O)C3)c(C)n2)cnn1C [Example 36, (1S,3S)-3-((4-methyl-2-(I-methyl-5-(((((S)-2-methylbutoxy)carbonyl)amino)methyl)-1H-pyrazol-4-yl)pyrimidin-5-yl)oxy)cyclohexane-1-carboxylic Acid] | 31 nM |  |
| Cc1nc(-c2cnn(C)c2CNC(=O)OCC(C)C)ncc1O[C@H]1CCC[C@H](C(=O)O)C1 [Example 38, (1S,3S)-3-((2-(5-(((isobutoxy-carbonyl)amino)methyl)-1-methyl-1H-pyrazol-4-yl)-4-methylpyrimidin-5-yl)oxy)cyclohexane-1-carboxylic acid] | 218 nM |  |
| Cc1nc(-c2cnn(C)c2NC(=O)OC(C)(C)C)ncc1O[C@H]1CCC[C@H](C(=O)O)C1 [Example 39, (1S,3S)-3-((2-(5-((tert-butoxycarbonyl)amino)-1-methyl-1H-pyrazol-4-yl)-4-methylpyrimidin-5-yl)oxy)cyclohexane-1-carboxylic Acid] | 1520 nM |  |
| CCCCOC(=O)Nc1c(-c2ncc(O[C@H]3CCC[C@H](C(=O)O)C3)c(C)n2)cnn1C [Example 42, (1S,3S)-3-((2-(5-((butoxycarbonyl)amino)-1-methyl-1H-pyrazol-4-yl)-4-methylpyrimidin-5-yl)oxy)cyclohexane-1-carboxylic acid] | 239 nM |  |
